For orientation: Ki means the equilibrium dissociation constant of an inhibitor or competing ligand from its target. Low values mean higher affinity, high ones lower affinity.

SMILES strings stand for the structures. Bounds are passed on as bounds.

Bcl-2 protein, sequence (P10415 whole entry): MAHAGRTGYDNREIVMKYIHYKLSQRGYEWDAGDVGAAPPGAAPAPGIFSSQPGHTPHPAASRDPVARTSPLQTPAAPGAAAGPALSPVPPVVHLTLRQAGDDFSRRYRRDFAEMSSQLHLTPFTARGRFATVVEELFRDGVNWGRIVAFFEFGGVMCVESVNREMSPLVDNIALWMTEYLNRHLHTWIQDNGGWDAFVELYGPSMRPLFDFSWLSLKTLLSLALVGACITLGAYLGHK

This test addresses Bcl-2 protein (Homo sapiens (Human), UniProt P10415). The test can be described thus: Bcl-2 binding TR-FRET (Time-Resolved Fluorescence-Resonance-Energy-Transfer) assay. The settings on record: inhibition constant for binding to Bcl-2 protein. The text has this: The smaller the Ki value, the greater is the binding affinity.
As for `CC1(C)CCC(CN2CCN(c3ccc(C(=O)NS(=O)(=O)c4ccc(NCC5CCN(C6CC6)CC5)c([N+](=O)[O-])c4)c(Oc4cnc5[nH]ccc5c4)c3)CC2)=C(c2ccc(Cl)cc2)C1` [Compound 164, 4-(4-{[2-(4-chlorophenyl)-4,4-dimethylcyclohex-1-en-1-yl]methyl}piperazin-1-yl)-N-[(4-{[(1-cyclopropylpiperidin-4-yl)methyl]amino}-3-nitrophenyl)sulfonyl]-2-(1H-pyrrolo[2,3-b]pyridin-5-yloxy)benzamide], the Ki was below 0.01 nM.

For `CC1(C)CCC(CN2CCN(c3ccc(C(=O)NS(=O)(=O)c4ccc(NCC5CN(C(CF)CF)CCO5)c([N+](=O)[O-])c4)c(Oc4cnc5[nH]ccc5c4)c3)CC2)=C(c2ccc(Cl)cc2)C1` (stereo not drawn) [Compound 252, 4-(4-{[2-(4-chlorophenyl)-4,4-dimethylcyclohex-1-en-1-yl]methyl}piperazin-1-yl)-N-{[4-({[4-(1,3-difluoropropan-2-yl)morpholin-2-yl]methyl}amino)-3-nitrophenyl]sulfonyl}-2-(1H-pyrrolo[2,3-b]pyridin-5-yloxy)benzamide], the Ki was below 0.01 nM. The same measure for `CC1(C)CCC(CN2CCN(c3ccc(C(=O)NS(=O)(=O)c4ccc(NN5CCS(=O)(=O)CC5)c([N+](=O)[O-])c4)c(Oc4cnc5[nH]ccc5c4)c3)CC2)=C(c2ccc(Cl)cc2)C1` [Compound 107, trans-4-(4-{[2-(4-chlorophenyl)-4,4-dimethylcyclohex-1-en-1-yl]methyl}piperazin-1-yl)-N-({4-[(1,1-dioxidothiomorpholin-4-yl)amino]-3-nitrophenyl}sulfonyl)-2-(1H-pyrrolo[2,3-b]pyridin-5-yloxy)benzamide]: 0.035 nM. In the case of `CC1(C)CCC(CN2CCN(c3ccc(C(=O)NS(=O)(=O)c4ccc(NC[C@@H]5CCN(C6COC6)C5)c([N+](=O)[O-])c4)c(Oc4cnc5[nH]ccc5c4)c3)CC2)=C(c2ccc(Cl)cc2)C1` [Compound 209, 4-(4-{[2-(4-chlorophenyl)-4,4-dimethylcyclohex-1-en-1-yl]methyl}piperazin-1-yl)-N-{[3-nitro-4-({[(3S)-1-oxetan-3-ylpyrrolidin-3-yl]methyl}amino)phenyl]sulfonyl}-2-(1H-pyrrolo[2,3-b]pyridin-5-yloxy)benzamide] it was below 0.01 nM. The same measure for `CC1(C)CCC(CN2CCN(c3ccc(C(=O)NS(=O)(=O)c4ccc(NCC5CCN(C(CF)CF)CC5)c([N+](=O)[O-])c4)c(Oc4cnc5[nH]ccc5c4)c3)CC2)=C(c2ccc(Cl)cc2)C1` [Compound 172, 4-(4-{[2-(4-chlorophenyl)-4,4-dimethylcyclohex-1-en-1-yl]methyl}piperazin-1-yl)-N-({4-[({1-[2-fluoro-1-(fluoromethyl)ethyl]piperidin-4-yl}methyl)amino]-3-nitrophenyl}sulfonyl)-2-(1H-pyrrolo[2,3-b]pyridin-5-yloxy)benzamide]: below 0.01 nM.

In turn, `CC1(C)CCC(CN2CCN(c3ccc(C(=O)NS(=O)(=O)c4ccc(NCC5COCCN5)c([N+](=O)[O-])c4)c(Oc4cnc5[nH]ccc5c4)c3)CC2)=C(c2ccc(Cl)cc2)C1` (stereo not drawn) [Compound 66, 4-(4-{[2-(4-chlorophenyl)-4,4-dimethylcyclohex-1-en-1-yl]methyl}piperazin-1-yl)-N-({4-[(morpholin-3-ylmethyl)amino]-3-nitrophenyl}sulfonyl)-2-(1H-pyrrolo[2,3-b]pyridin-5-yloxy)benzamide] gave an inhibitory constant (Ki) below 0.01 nM. In the case of `CC1(C)CCC(CN2CCN(c3ccc(C(=O)NS(=O)(=O)c4ccc(NCC56CC7CC(C5)C(O)C(C7)C6)c([N+](=O)[O-])c4)c(Oc4cnc5[nH]ccc5c4)c3)CC2)=C(c2ccc(Cl)cc2)C1` (stereo not drawn) [Compound 200, 4-(4-{[2-(4-chlorophenyl)-4,4-dimethylcyclohex-1-en-1-yl]methyl}piperazin-1-yl)-N-{[4-({[(Z)-4-hydroxy-1-adamantyl]methyl}amino)-3-nitrophenyl]sulfonyl}-2-(1H-pyrrolo[2,3-b]pyridin-5-yloxy)benzamide] it was below 0.01 nM; in that of `CC1(C)CCC(CN2CCN(c3ccc(C(=O)NS(=O)(=O)c4ccc(N[C@H]5CC[C@@H](N6CCOCC6)C5)c([N+](=O)[O-])c4)c(Oc4cnc5[nH]ccc5c4)c3)CC2)=C(c2ccc(Cl)cc2)C1` [Compound 111, 4-(4-{[2-(4-chlorophenyl)-4,4-dimethylcyclohex-1-en-1-yl]methyl}piperazin-1-yl)-N-[(4-{[(1S,3R)-3-morpholin-4-ylcyclopentyl]amino}-3-nitrophenyl)sulfonyl]-2-(1H-pyrrolo[2,3-b]pyridin-5-yloxy)benzamide], below 0.01 nM; in that of `CC1(C)CCC(CN2CCN(c3ccc(C(=O)NS(=O)(=O)c4ccc(OC[C@H]5COCCO5)c([N+](=O)[O-])c4)c(Oc4cnc5[nH]ccc5c4)c3)CC2)=C(c2ccc(Cl)cc2)C1` [Compound 30, 4-(4-{[2-(4-chlorophenyl)-4,4-dimethylcyclohex-1-en-1-yl]methyl}piperazin-1-yl)-N-({4-[(2R)-1,4-dioxan-2-ylmethoxy]-3-nitrophenyl}sulfonyl)-2-(1H-pyrrolo[2,3-b]pyridin-5-yloxy)benzamide], below 0.01 nM. The same measure for `CC(C)N1CCC2(CCC(c3ccc(Cl)cc3)=C(CN3CCN(c4ccc(C(=O)NS(=O)(=O)c5cnc(OCC6CCOCC6)c(Cl)c5)c(Oc5cnc6[nH]ccc6c5)c4)CC3)C2)CC1` [Compound 268, 4-(4-{[9-(4-chlorophenyl)-3-isopropyl-3-azaspiro[5.5]undec-8-en-8-yl]methyl}piperazin-1-yl)-N-{[5-chloro-6-(tetrahydro-2H-pyran-4-ylmethoxy)pyridin-3-yl]sulfonyl}-2-(1H-pyrrolo[2,3-b]pyridin-5-yloxy)benzamide]: below 0.01 nM; for `CC(=O)N1CCC(CNc2ccc(S(=O)(=O)NC(=O)c3ccc(N4CCN(CC5=C(c6ccc(Cl)cc6)CC(C)(C)CC5)CC4)cc3Oc3cnc4[nH]ccc4c3)cc2[N+](=O)[O-])C1` (stereo not drawn) [Compound 153, N-[(4-{[(1-acetylpyrrolidin-3-yl)methyl]amino}-3-nitrophenyl)sulfonyl]-4-(4-{[2-(4-chlorophenyl)-4,4-dimethylcyclohex-1-en-1-yl]methyl}piperazin-1-yl)-2-(1H-pyrrolo[2,3-b]pyridin-5-yloxy)benzamide]: below 0.01 nM; for `CCN1CCOCC1COc1ccc(S(=O)(=O)NC(=O)c2ccc(N3CCN(CC4=C(c5ccc(Cl)cc5)CC(C)(C)CC4)CC3)cc2Oc2cnc3[nH]ccc3c2)cc1[N+](=O)[O-]` (stereo not drawn) [Compound 103, 4-(4-{[2-(4-chlorophenyl)-4,4-dimethylcyclohex-1-en-1-yl]methyl}piperazin-1-yl)-N-({4-[(4-ethylmorpholin-3-yl)methoxy]-3-nitrophenyl}sulfonyl)-2-(1H-pyrrolo[2,3-b]pyridin-5-yloxy)benzamide]: below 0.01 nM. The same measure for `CC1(C)CCC(CN2CCN(c3ccc(C(=O)NS(=O)(=O)c4ccc(NCC5(F)CCOCC5)c([N+](=O)[O-])c4)c(Oc4cnc5[nH]ccc5c4)c3)CC2)=C(c2ccc(Cl)cc2)C1` [Compound 138, 4-(4-{[2-(4-chlorophenyl)-4,4-dimethylcyclohex-1-en-1-yl]methyl}piperazin-1-yl)-N-[(4-{[(4-fluorotetrahydro-2H-pyran-4-yl)methyl]amino}-3-nitrophenyl)sulfonyl]-2-(1H-pyrrolo[2,3-b]pyridin-5-yloxy)benzamide]: below 0.01 nM; for `O=C(NS(=O)(=O)c1ccc(NCC2CCOCC2)c([N+](=O)[O-])c1)c1ccc(N2CCN(CC3=C(c4ccc(Cl)cc4)CCC4(CCN(C(CF)CF)CC4)C3)CC2)cc1Oc1cnc2[nH]ccc2c1` [Compound 265, 4-(4-{[9-(4-chlorophenyl)-3-(1,3-difluoropropan-2-yl)-3-azaspiro[5.5]undec-8-en-8-yl]methyl}piperazin-1-yl)-N-({3-nitro-4-[(tetrahydro-2H-pyran-4-ylmethyl)amino]phenyl}sulfonyl)-2-(1H-pyrrolo[2,3-b]pyridin-5-yloxy)benzamide]: below 0.01 nM; for `CN1CCOC(CNc2ccc(S(=O)(=O)NC(=O)c3ccc(N4CCN(CC5=C(c6ccc(Cl)cc6)CC(C)(C)CC5)CC4)cc3Oc3cnc4[nH]ccc4c3)cc2[N+](=O)[O-])C1` (stereo not drawn) [Compound 134, 4-(4-{[2-(4-chlorophenyl)-4,4-dimethylcyclohex-1-en-1-yl]methyl}piperazin-1-yl)-N-[(4-{[(4-methylmorpholin-2-yl)methyl]amino}-3-nitrophenyl)sulfonyl]-2-(1H-pyrrolo[2,3-b]pyridin-5-yloxy)benzamide]: below 0.01 nM. `O=C(NS(=O)(=O)c1ccc(NCCCN2CCOCC2)c([N+](=O)[O-])c1)c1ccc(N2CCN(Cc3ccccc3-c3ccc(Cl)cc3)CC2)cc1Oc1cnc2[nH]ccc2c1` [Compound 2, 4-{4-[(4′-chloro-1,1′-biphenyl-2-yl)methyl]piperazin-1-yl}-N-({4-[(3-morpholin-4-ylpropyl)amino]-3-nitrophenyl}sulfonyl)-2-(1H-pyrrolo[2,3-b]pyridin-5-yloxy)benzamide] came in with a Ki below 0.01 nM. The same measure for `CC1(C)CCC(CN2CCN(c3ccc(C(=O)NS(=O)(=O)c4ccc(OCC5CCCC(=O)C5)c([N+](=O)[O-])c4)c(Oc4cnc5[nH]ccc5c4)c3)CC2)=C(c2ccc(Cl)cc2)C1` (stereo not drawn) [Compound 205, 4-(4-{[2-(4-chlorophenyl)-4,4-dimethylcyclohex-1-en-1-yl]methyl}piperazin-1-yl)-N-({3-nitro-4-[(3-oxocyclohexyl)methoxy]phenyl}sulfonyl)-2-(1H-pyrrolo[2,3-b]pyridin-5-yloxy)benzamide]: below 0.01 nM. The same measure for `CC1(C)CCC(CN2CCN(c3ccc(C(=O)NS(=O)(=O)c4ccc(NC[C@@H]5CC[C@H](O)C5)c([N+](=O)[O-])c4)c(Oc4cnc5[nH]ccc5c4)c3)CC2)=C(c2ccc(Cl)cc2)C1` [Compound 159, 4-(4-{[2-(4-chlorophenyl)-4,4-dimethylcyclohex-1-en-1-yl]methyl}piperazin-1-yl)-N-{[4-({[(1R,3S)-3-hydroxycyclopentyl]methyl}amino)-3-nitrophenyl]sulfonyl}-2-(1H-pyrrolo[2,3-b]pyridin-5-yloxy)benzamide]: below 0.01 nM.

The values above are taken from US10213433B2 (AbbVie Inc., priority 2010, dated 2019).
